System: 991263-137-R1-J2-PDC complex spheroid viability
Test: Anticancer human tumor 991263-137-R1-J2-PDC patient-derived colon adenocarcinoma cell line growth inhibition [POLQ]
Conditions: for IC50: curve of first compound; for viability, T/C: stronger effect = lower value
Experimental: Multicellular complex tumor spheroid response to Polymerase (POL) inhibitors (novobiocin, ART-558, RP6685) in combination with a variety of drugs and investigational agents in selected tumor cell lines
The POL inhibitors (novobiocin, ART-558, and RP6685) were evaluated both individually and in combination with standard of care and investigational anticancer small molecules within a complex spheroid model of solid tumors. . Complex spheroids include a stromal component modeled by human endothelial cells (HUVEC) and fibroblasts modeled by human mesenchymal stem cells (MSCs). The concentration ranges selected for each drug and investigational agent were based upon clinically achievable concentrations if the clinical Cmax of the agent was known.
Compounds. The drugs and investigational agents: novobiocin (NSC847541), ART-558 (NSC835418), RP-6685 (NSC848927), peposertib (NSC802822), ceralasertib (NSC780249), elimusertib (NSC800525), camonsertib (NSC841442), AZD-1390 (NSC803789), olaparib (NSC753686), talazoparib (NSC767125), rucaparib (NSC756644), sotorasib (NSC818433), MRTX-1133 (NSC836407), SN-38 (NSC673596), topotecan (NSC609699), epotoside (NSC141540), doxorubicin (NSC123127), gemcitabine (NSC613327), 5-fluorouracil (NSC19893), paclitaxel (NSC125973), vemurafenib (NSC761431), MSA-2 (NSC828583), SN-011 (NSC837082), adavosertib (NSC754352), prexasertib (NSC758257), carboplatin (NSC241240) and oxaliplatin (NSC266046), were obtained from the National Cancer Institute (NCI) Developmental Therapeutics Program Chemical Repository (21). The FDA-approved anticancer drug set is available from the Developmental Therapeutics Program at https://dtp.cancer.gov/organization/dscb/obtaining/. […] The stock solutions were prepared in dimethyl sulfoxide (DMSO, Sigma-Aldrich, St. Louis, MO, cat. D2650), except for the platinum compounds which were prepared in saline (Quality Biological, Gaithersburg, MD, cat. 114-055-101), at 800-fold the tested concentration and stored at -70 degrees C prior to their use. All drugs and investigational agents were tested over a range starting from a high concentration at or near the clinical Cmax and decreasing in half-log increments. If the clinical Cmax for an agent had not been determined, the highest concentration tested was 10 microM, except for SN-38, which was tested at a high concentration of 1 microM.
Cell Culture. All cells were maintained in an incubator at 37 degrees C and 5% CO2 with 95% humidity. The PDC lines were cultured according to standard operating procedures established by the NCI PDMR (https://pdmr.cancer.gov). Table 3 of the manuscript, lists the cell lines along with the number of the three cell types plated to form the mct-spheroids and media for tumor cell growth. After thawing, all PDC lines, except 997537-175-T-J1-PDC and 415267-285-R-J2-PDC, were cultured in Matrigel-coated flasks prepared with a working solution of 1X Ham's F-12 nutrient mix, without supplementation (Thermo Fisher Scientific, cat. 11765054), 100 U/mL penicillin-streptomycin (Thermo Fisher Scientific, cat. 15140122), and 2.5% Matrigel (Corning Inc., Corning, NY, cat. 354248) for the first three passages. The two PDC lines 997537-175-T-J1-PDC and 415267-285-R-J2-PDC were cultured on uncoated flasks. The 857933-349-R-J2-PDC line was cultured in 6C/Colon 1B media containing advanced DMEM/F-12 (Thermo Fisher Scientific, cat. 12634028), 10 mM HEPES (Thermo Fisher Scientific, cat. 15630080), 1X GlutaMAX supplement (Thermo Fisher Scientific, cat. 35050061), 0.1 mg/mL primocin (InvivoGen, San Diego, CA, cat. ant-pm-2), 10% defined fetal bovine serum, heat inactivated (HyClone Laboratories Inc., Logan, UT, cat. SH30070.03HI), 50% L-WRN conditioned media (ATCC, cat. CRL-3276), 1.25 mM N-Acetyl-L-cysteine (Sigma-Aldrich, cat. A9165), 10 mM nicotinamide (Sigma-Aldrich, cat. N0636), 1X B-27 supplement (Thermo Fisher Scientific, cat. 17504044), 1X N-2 supplement (Thermo Fisher Scientific, cat. […]
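Further: spheroids exposed to compounds for 7 days before readout.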
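Wherever viability, T/C is given: 100% = DMSO vehicle control viability.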

For `CC(=O)O[C@H]1C(=O)[C@@]2(C)[C@H]([C@H](OC(=O)c3ccccc3)[C@]3(O)C[C@H](OC(=O)[C@H](O)[C@@H](NC(=O)c4ccccc4)c4ccccc4)C(C)=C1C3(C)C)[C@]1(OC(C)=O)CO[C@@H]1C[C@@H]2O` + COC1C(OC(N)=O)C(O)C(Oc2ccc3c(O)c(NC(=O)c4ccc(O)c(CC=C(C)C)c4)c(=O)oc3c2C)OC1(C)C, the IC50 (second compound 0.0316 µM) was over 3000 nM, the IC50 (second compound 0.1 µM) was 1950 nM and the IC50 (second compound 0.316 µM) was 1580 nM. The IC50 (second compound 1 µM) was 1540 nM, the IC50 (second compound 3.16 µM) was 1850 nM and the IC50 (second compound 10 µM) was 1700 nM. For the same compound, the viability, T/C (second compound 0.0316 µM, first compound 0.00949 µM) was 90%, the viability, T/C (second compound 0.0316 µM, first compound 0.03 µM) was 100% and the viability, T/C (second compound 0.0316 µM, first compound 0.0949 µM) was 75.2%. For the same compound, the viability, T/C (second compound 0.0316 µM, first compound 0.3 µM) was 54.2%, the viability, T/C (second compound 0.0316 µM, first compound 0.949 µM) was 51.6% and the viability, T/C (second compound 0.0316 µM, first compound 3 µM) was 48.9%. It also gave a viability, T/C (second compound 0.1 µM, first compound 0.00949 µM) of 100%, a viability, T/C (second compound 0.1 µM, first compound 0.03 µM) of 90.3% and a viability, T/C (second compound 0.1 µM, first compound 0.0949 µM) of 78.7%. It also gave a viability, T/C (second compound 0.1 µM, first compound 0.3 µM) of 83%, a viability, T/C (second compound 0.1 µM, first compound 0.949 µM) of 58.8% and a viability, T/C (second compound 0.1 µM, first compound 3 µM) of 43%. It also gave a viability, T/C (second compound 0.316 µM, first compound 0.00949 µM) of 103%, a viability, T/C (second compound 0.316 µM, first compound 0.03 µM) of 97% and a viability, T/C (second compound 0.316 µM, first compound 0.0949 µM) of 75.5%. The viability, T/C (second compound 0.316 µM, first compound 0.3 µM) was 74.3%, the viability, T/C (second compound 0.316 µM, first compound 0.949 µM) was 50.3% and the viability, T/C (second compound 0.316 µM, first compound 3 µM) was 45.4%. For the same compound, the viability, T/C (second compound 1 µM, first compound 0.00949 µM) was 93.2%, the viability, T/C (second compound 1 µM, first compound 0.03 µM) was 97.5% and the viability, T/C (second compound 1 µM, first compound 0.0949 µM) was 83.8%. It also gave a viability, T/C (second compound 1 µM, first compound 0.3 µM) of 74.1%, a viability, T/C (second compound 1 µM, first compound 0.949 µM) of 55.6% and a viability, T/C (second compound 1 µM, first compound 3 µM) of 42.1%. It also gave a viability, T/C (second compound 3.16 µM, first compound 0.00949 µM) of 96.2%, a viability, T/C (second compound 3.16 µM, first compound 0.03 µM) of 83.5% and a viability, T/C (second compound 3.16 µM, first compound 0.0949 µM) of 81.4%. For the same compound, the viability, T/C (second compound 3.16 µM, first compound 0.3 µM) was 70.6%, the viability, T/C (second compound 3.16 µM, first compound 0.949 µM) was 54.5% and the viability, T/C (second compound 3.16 µM, first compound 3 µM) was 45.7%. It also gave a viability, T/C (second compound 10 µM, first compound 0.00949 µM) of 86.7%, a viability, T/C (second compound 10 µM, first compound 0.03 µM) of 91.2% and a viability, T/C (second compound 10 µM, first compound 0.0949 µM) of 96%. For the same compound, the viability, T/C (second compound 10 µM, first compound 0.3 µM) was 81%, the viability, T/C (second compound 10 µM, first compound 0.949 µM) was 57.1% and the viability, T/C (second compound 10 µM, first compound 3 µM) was 43.4%.

Work on `Cn1ncnc1[C@H]1c2n[nH]c(=O)c3cc(F)cc(c23)N[C@@H]1c1ccc(F)cc1` + COC1C(OC(N)=O)C(O)C(Oc2ccc3c(O)c(NC(=O)c4ccc(O)c(CC=C(C)C)c4)c(=O)oc3c2C)OC1(C)C yielded an IC50 (second compound 0.0316 µM) of over 100 nM, an IC50 (second compound 0.1 µM) of over 100 nM and an IC50 (second compound 0.316 µM) of over 100 nM. It also gave an IC50 (second compound 1 µM) of over 100 nM, an IC50 (second compound 3.16 µM) of over 100 nM and an IC50 (second compound 10 µM) of over 100 nM. The viability, T/C (second compound 0.0316 µM, first compound 0.000316 µM) was 122%, the viability, T/C (second compound 0.0316 µM, first compound 0.001 µM) was 107% and the viability, T/C (second compound 0.0316 µM, first compound 0.00316 µM) was 104%. The viability, T/C (second compound 0.0316 µM, first compound 0.01 µM) was 85.5%, the viability, T/C (second compound 0.0316 µM, first compound 0.0316 µM) was 79.3% and the viability, T/C (second compound 0.0316 µM, first compound 0.1 µM) was 107%. The viability, T/C (second compound 0.1 µM, first compound 0.000316 µM) was 99.8%, the viability, T/C (second compound 0.1 µM, first compound 0.001 µM) was 117% and the viability, T/C (second compound 0.1 µM, first compound 0.00316 µM) was 97.7%. For the same compound, the viability, T/C (second compound 0.1 µM, first compound 0.01 µM) was 83.8%, the viability, T/C (second compound 0.1 µM, first compound 0.0316 µM) was 105% and the viability, T/C (second compound 0.1 µM, first compound 0.1 µM) was 102%. It also gave a viability, T/C (second compound 0.316 µM, first compound 0.000316 µM) of 95%, a viability, T/C (second compound 0.316 µM, first compound 0.001 µM) of 122% and a viability, T/C (second compound 0.316 µM, first compound 0.00316 µM) of 75.4%. For the same compound, the viability, T/C (second compound 0.316 µM, first compound 0.01 µM) was 108%, the viability, T/C (second compound 0.316 µM, first compound 0.0316 µM) was 109% and the viability, T/C (second compound 0.316 µM, first compound 0.1 µM) was 110%. It also gave a viability, T/C (second compound 1 µM, first compound 0.000316 µM) of 98.1%, a viability, T/C (second compound 1 µM, first compound 0.001 µM) of 117% and a viability, T/C (second compound 1 µM, first compound 0.00316 µM) of 94.2%. The viability, T/C (second compound 1 µM, first compound 0.01 µM) was 106%, the viability, T/C (second compound 1 µM, first compound 0.0316 µM) was 71.5% and the viability, T/C (second compound 1 µM, first compound 0.1 µM) was 109%. For the same compound, the viability, T/C (second compound 3.16 µM, first compound 0.000316 µM) was 95.9%, the viability, T/C (second compound 3.16 µM, first compound 0.001 µM) was 109% and the viability, T/C (second compound 3.16 µM, first compound 0.00316 µM) was 92.1%. The viability, T/C (second compound 3.16 µM, first compound 0.01 µM) was 102%, the viability, T/C (second compound 3.16 µM, first compound 0.0316 µM) was 109% and the viability, T/C (second compound 3.16 µM, first compound 0.1 µM) was 110%. The viability, T/C (second compound 10 µM, first compound 0.000316 µM) was 95.7%, the viability, T/C (second compound 10 µM, first compound 0.001 µM) was 110% and the viability, T/C (second compound 10 µM, first compound 0.00316 µM) was 121%. It also gave a viability, T/C (second compound 10 µM, first compound 0.01 µM) of 98%, a viability, T/C (second compound 10 µM, first compound 0.0316 µM) of 113% and a viability, T/C (second compound 10 µM, first compound 0.1 µM) of 95.8%.

Source: PubChem BioAssay AID1963828 (Molecular Pharmacology Branch, DTP, NCI, 2024)
